Experimental data reported in article PMC10012172, “Chimeric Peptidomimetic Antibiotic Efficiently Neutralizes Lipopolysaccharides (LPS) and Bacteria-Induced Activation of RAW Macrophages” (ACS Infectious Diseases, 2023).
Where a SMILES comes first, the peptide text is derived from it. Bridges are numbered along the chain shown (N, C = ends). [ ]: non-standard residue; d: D form. Tle = CC(C)(C)[C@H](N)C(=O)O; dDab = NCC[C@@H](N)C(=O)O; hSer = N[C@@H](CCO)C(=O)O; Orn = NCCC[C@H](N)C(=O)O; Dab = NCC[C@H](N)C(=O)O

Tests used:
[1] = tested on: RAW264.7 macrophages stimulated with treated P. aeruginosa; assay: Silent killing: stimulation of macrophages with nonviable bacteria (TNF-α ELISA); type: cell-based; settings: RAW264.7 2 h; for macrophage activation (TNF-α) by peptide-treated P. aeruginosa compared to viable untreated bacteria: bacteria 1 × 10^6 CFU/mL treated with 20 μM peptide 1 h at 37 °C, three independent experiments
Experimental: Figure 7 (A) Determination of macrophage activation in response to viable and nonviable bacteria. P. aeruginosa was treated with gentamicin, heat treatment, CATH-2 (control), CPA, murepavadin, MHM, PMB, or PMBN (20 μM of each) and subsequently added to RAW264.7 macrophages. Production of TNF-α was measured using ELISA after 2 h of treatment. (B) Viability of P. aeruginosa after treatment was checked by plating on TSA plates. Data is plotted as the mean ± SEM of three independent experiments. Significant differences were determined by ordinary one-way ANOVA (Tukey’s multiple comparison test).
RAW264.7 cells were seeded (7.5 × 10^4 cells/well) as described above. P. aeruginosa (diluted to 1 × 10^6 CFU/mL in DMEM) was treated separately with heat (1 h at 90 °C), 1 mg/mL gentamicin (1 h at 37 °C), 20 μM CPA (1 h at 37 °C), 20 μM PMB (1 h at 37 °C), 20 μM murepavadin (1 h at 37 °C), 20 μM MHM (1 h at 37 °C), 20 μM CATH-2 (1 h at 37 °C), and DMEM only (untreated sample) (1 h at 4 °C). After treatment, the bacteria were added to the RAW264.7 cells for 2 h of incubation at 37 °C. After that, TNF-α production was determined in the supernatant by ELISA.

[2] = tested on: E. coli O111:B4 LPS stimulated RAW264.7 macrophages; assay: IL-10 release ELISA in LPS stimulated macrophages; type: cell-based; settings: 20 ng/mL E. coli O111:B4 LPS, 24 h; for concentration inhibiting IL-10 release: unable to inhibit up to highest concentration
Experimental: (§1) Figure 4 Peptides modulation of cytokine expression in RAW264.7 cells stimulated with LPS. RAW macrophages were stimulated with 20 ng/mL E. coli LPS in the presence of different concentrations of peptide antibiotics. (A) TNF-α and (B) IL-10 release was measured by ELISA in duplicates. Shown are the mean ± SEM of three independent experiments.
(§2) RAW264.7 cells were seeded (5 × 10^4 cells/well) in a 96-well plate and left at 37 °C for overnight adherence. Then, cells were stimulated with […] types of LPS: 20 ng/mL LPS originating from E. coli O111:B4 (LPS-EB, InvivoGen), 50 ng/mL LPS from P. aeruginosa (PA-10 LPS, Sigma -Aldrich), and 5 ng/mL LPS from E. coli K-12 (LPS-EK, InvivoGen) in the presence of 0–5 μM peptides in DMEM for 24 h. After incubation, the nitrite content (corresponding to nitric oxide produced but quickly oxidized in watery solutions to nitrite) in the supernatant was measured using the Griess assay.[28]
(§3) A sandwich ELISA was used to measure TNF-α and IL-10 concentrations in the supernatant of the same treatment (24 h) used for nitrite measurement, using ELISA Duoset kits (R&D systems, Minneapolis, MN) according to the manufacturer’s protocol.

E. coli O111:B4 LPS = assay: Isothermal titration calorimetry (ITC) of LPS binding; settings: 30 μM peptide, 200 μM LPS in 50% PBS, 37 °C, representative of two measurements
Experimental: Figure 6 (A) Binding profile of LPS and the peptides using ITC. Binding signatures (ΔG, ΔH. and −TΔS) plotted for binding events of LPS with peptides. (B) Spectra of the interaction between LPS and peptides. Murepavadin, PMB, MHM, PMBN, and CPA (30 μM) were titrated against 200 μM E. coli O111:B4 LPS, and heat rates were recorded. Shown is a representative of two measurements.
ITC measurements were performed in a low volume NanoITC (TA Instruments-Waters LLC, New Castle, DE). Two hundred micromolar LPS (from E. coli O111:B4) was prepared in 50% PBS. Peptides of 30 μM concentration were prepared in identical buffer. Three hundred microliters of the peptide solution was added to the chamber (chamber volume is 169 μL, so the rest of the volume flows out and rests around the chamber), and 50 μL of LPS was added to the syringe. At 37 °C, 2 μL of LPS solution was injected into the chamber every 300 s, except the first injection, which consists of 0.96 μL. The experiments were performed at 37 °C while stirring at 300 rpm. The data was analyzed with the NanoAnalyze Software (TA Instruments, Asse, Belgium).

[3] = tested on: Escherichia coli (clinical isolate); type: cell-based; settings: clinical isolate, 3 h
Experimental: (§4) Figure 2 Determination of MBC values for (A) E. coli and (B) P. aeruginosa. Surviving bacterial colonies were detected after incubation with tested peptides for 3 h in MHB.
(§5) Bacterial strains used in this study were clinical isolates of Escherichia coli and Pseudomonas aeruginosa provided by Utrecht University Medical Center, Department of Medical Microbiology, Utrecht, The Netherlands. Both strains were cultured in Mueller Hinton broth (MHB) (Millipore, Sigma-Aldrich).
(§6) Logarithmic growth phase of an o/n bacterial culture was obtained by diluting it 1:100 in MHB and then incubating it for 3 h at 37 °C while shaking. After that, the OD620 of the bacterial suspension was measured and the bacterial solution was diluted to 2 × 10^6 colony forming units/mL (CFU/mL). Bacteria and peptides in MHB were mixed 1:1 (v/v) and incubated for 3 h at 37 °C in a polypropylene round-bottom 96 well-plate (Corning Costar, Glendale, AZ). Subsequently, 10-fold dilutions were made and plated out on Tryptone Soy Agar (TSA) plates and incubated for 24 h at 37 °C to count colonies.

[4] = tested on: Pseudomonas aeruginosa (clinical isolate); type: cell-based; settings: 3 h
Experimental: as §4, §5, §6

[5] = tested on: E. coli O111:B4 LPS stimulated RAW264.7 macrophages; assay: TNF-α release ELISA in LPS stimulated macrophages; type: cell-based; settings: 20 ng/mL E. coli O111:B4 LPS, 24 h; for concentration inhibiting TNF-α release: unable to inhibit up to highest concentration
Experimental: as §1, §2, §3

[6] = tested on: P. aeruginosa 10 LPS stimulated RAW264.7 macrophages; assay: Nitric oxide inhibition assay (Griess), P. aeruginosa 10 LPS; type: cell-based; settings: smooth P. aeruginosa 10 LPS 50 ng/mL; 0–5 μM peptide; 24 h
Experimental: (§7) Figure 3 Nitric oxide inhibition in LPS stimulated RAW264.7 by peptide antibiotics. RAW264.7 cells were stimulated with smooth type LPSs (A) E. coli O111:B4 LPS and (B) P. aeruginosa LPS and rough type LPS (C) E. coli K-12 LPS in the presence of different concentrations of peptides: CPA, murepavadin, MHM, PMB, and PMBN. NO production was measured by Griess assay. Shown are the mean ± SEM of three independent experiments. (D) Schematic diagram of the general structure of lipopolysaccharides. It consists of three main subunits: lipid A, the core region, and the O-antigen. Lipid A and the core-region form rough (R)-type LPS. Lipid A, the core-region, and the O-antigen together form smooth (S)-type LPS.
as §2

[7] = tested on: E. coli O111:B4 LPS stimulated RAW264.7 macrophages; assay: Nitric oxide inhibition assay (Griess), E. coli O111:B4 LPS; type: cell-based; settings: smooth E. coli O111:B4 LPS 20 ng/mL; 0–5 μM peptide; 24 h
Experimental: as §7, §2

[8] = tested on: E. coli K-12 LPS stimulated RAW264.7 macrophages; assay: Nitric oxide inhibition assay (Griess), E. coli K-12 LPS; type: cell-based; settings: rough E. coli K-12 LPS 5 ng/mL; 0–5 μM peptide; 24 h
Experimental: as §7, §2

| Compound | macrophage activation (TNF-α) by gentamicin-killed P. aeruginosa compared to viable untreated bacteria ([1]; bacteria treated with 1 mg/mL gentamicin 1 h at 37 °C) | concentration inhibiting IL-10 release [2] [µM] | Kd (E. coli O111:B4 LPS) [nM] | MBC (complete killing) against E. coli [3] [µM] | MBC (complete killing) against P. aeruginosa [4] [µM] | concentration inhibiting TNF-α release [5] [µM] | macrophage activation (TNF-α) by peptide-treated P. aeruginosa compared to viable untreated bacteria [1] | inhibition of IL-10 release (in words) [2] | inhibition of LPS-induced nitric oxide production (in words) [6] | inhibition of LPS-induced nitric oxide production (in words) [7] | inhibition of LPS-induced nitric oxide production (in words) [8] | inhibition of TNF-α release (in words) [5] |
| --- | --- | --- | --- | --- | --- | --- | --- | --- | --- | --- | --- | --- |
| CNC(C)C1CCC(N)C(OC2C(N)CC(N)C(OC3OCC(C)(O)C(NC)C3O)C2O)O1 (centres unmarked) [Gentamicin] | almost same level as viable untreated bacteria |  |  |  |  |  |  |  |  |  |  |  |
| CC(C)[C@@H]1NC(=O)[C@@H]2CCCN2C(=O)[C@@H](C)NC(=O)[C@H](CO)NC(=O)[C@H](C)NC(=O)[C@H](C(C)(C)C)NC(=O)[C@H](CCO)NC(=O)[C@H](Cc2c[nH]c3ccccc23)NC(=O)[C@H](CCO)NC(=O)[C@@H](CCN)NC(=O)[C@H](CCC(=O)O)NC(=O)[C@H](CCN)NC(=O)[C@H](Cc2ccc(O)cc2)NC(=O)[C@H]([C@@H](C)O)NC1=O [MHM] (cyclo(VTY[Dab]E[dDab][hSer]W[hSer][Tle]AS[dA]P)) |  | > 5 | 970 | > 20 | > 20 | > 5 | no significant reduction in macrophage activation |  |  |  |  |  |
| CC(C)C[C@@H]1NC(=O)[C@@H](Cc2ccccc2)NC(=O)[C@H](CCN)NC(=O)[C@@H](NC(=O)[C@H](CCN)NC(=O)[C@@H](N)[C@@H](C)O)CCNC(=O)[C@H]([C@@H](C)O)NC(=O)[C@H](CCN)NC(=O)[C@H](CCN)NC1=O [PMBN, polymyxin B nonapeptide] (H-T[Dab][Dab][Dab][dF]L[Dab][Dab]T; lactam 3-C (inferred); N-terminus assumed) |  |  | 3800 | > 20 | > 20 |  |  | inhibit IL-10 release dose-dependently but at concentrations much higher than those required for CPA or PMB | partially inhibited nitric oxide production only at 5 μM | partially inhibited nitric oxide production only at 5 μM |  |  |
| CC[C@H](C)[C@@H]1NC(=O)[C@H](Cc2c[nH]c3ccccc23)NC(=O)[C@H]([C@@H](C)O)NC(=O)[C@@H]2CCCN2C(=O)[C@H]2CCCN2C(=O)[C@H](CO)NC(=O)[C@H](C)NC(=O)[C@H](CCN)NC(=O)[C@H](CCN)NC(=O)[C@H](Cc2c[nH]c3ccccc23)NC(=O)[C@H](CCN)NC(=O)[C@@H](CCN)NC(=O)[C@H](CCCN)NC(=O)[C@H](CCN)NC1=O [murepavadin] (cyclo(TWI[Dab][Orn][dDab][Dab]W[Dab][Dab]AS[dP]P)) |  | > 5 | 2020 | > 20 | 5 to 10 | > 5 | no significant reduction in macrophage activation |  |  |  |  |  |
| chicken cathelicidin 2 (LVQRGRFGRFLRKIRRFRPKVTITIQGSARFG; Cathelicidin-2; UniProt Q2IAL7 123-154, looked up) [CATH-2, chicken cathelicidin 2, control peptide for which silent killing was originally described] |  |  |  |  |  |  | significantly reduced immune response |  |  |  |  |  |
| polymyxin B [PMB] |  |  | 2500 |  |  |  |  | slightly less activity compared to CPA | dose-dependently active | dose-dependently active | dose-dependently active | slightly less activity compared to CPA |
